For data set [1], the target named is His-tagged recombinant human TrkA (cytoplasmic domain) (Homo sapiens (Human), UniProt P04629). The experiment in a line: TrkA Binding Assay (LanthaScreen Eu Kinase Binding Assay). Here is the method: The ability of a compound to bind to TrkA was measured by Invitrogen's LanthaScreen™ Eu Kinase Binding Assay. […] After a 60-minute incubation at 22° C., the reaction was measured using the EnVision via TR-FRET dual wavelength detection, and the POC was calculated from the emission ratio. The compound dose response data was fit to a 4-parameter logistic model and IC50 was defined as the concentration of compound at 50 POC.

The target in data set [2] is histidine-tagged recombinant human TrkA, cytoplasmic domain (Homo sapiens (Human), UniProt P04629). Kind of data set: TrkA ELISA Assay. Note: 2.5 nM TrkA. The following applies: read-out: TrkA Elisa Enzyme Assay IC50. The class given is biochemical. As to the method: An enzyme-linked immunosorbant assay (ELISA) was used to assess TrkA kinase activity in the presence of inhibitors. Immulon 4HBX 384-well microtiter plates (Thermo part #8755) were coated with a 0.025 mg/mL solution of poly (Glu, Ala, Tyr; 6:3:1; Sigma P3899). […] The assay buffer consisted of 25 mM MOPS pH 7.5, 0.005% (v/v) Triton X-100 and 5 mM MgCl2. The reaction mixture was removed from the plate by washing with PBS containing 0.1% (v/v) Tween 20. The phosphorylated reaction product was detected using 0.2 μg/mL of a phosphotyrosine specific monoclonal antibody (clone PY20) conjugated to horseradish peroxidase in conjunction with the TMB Peroxidase Substrate System (KPL). After the addition of 1M phosphoric acid, the chromogenic substrate color intensity was quantitated via absorbance at 450 nm. IC50 values were calculated using either a 4 or 5-parameter logistic curve fit.
Table 1 provides averaged IC50 values for compounds of the invention when tested in this assay.

The mark [3] stands for this setting: averaged IC50 values, […] TrkA, 500 μM ATP, 25 minutes at ambient temperature.
Where [4] appears, read: averaged IC50 values, TR-FRET, 60-minute incubation at 22° C., 2% DMSO final.

Where two headings read alike, the source gives them in different places.

Drawing on US9718822B2, “Macrocyclic compounds as Trk kinase inhibitors” (Array BioPharma, Inc., priority 2010, dated 2017), this text covers IC50 and ring closure, yield of all isomers for 20 compounds.

His-tagged recombinant human TrkA (cytoplasmic domain), sequence (P04629 440-796): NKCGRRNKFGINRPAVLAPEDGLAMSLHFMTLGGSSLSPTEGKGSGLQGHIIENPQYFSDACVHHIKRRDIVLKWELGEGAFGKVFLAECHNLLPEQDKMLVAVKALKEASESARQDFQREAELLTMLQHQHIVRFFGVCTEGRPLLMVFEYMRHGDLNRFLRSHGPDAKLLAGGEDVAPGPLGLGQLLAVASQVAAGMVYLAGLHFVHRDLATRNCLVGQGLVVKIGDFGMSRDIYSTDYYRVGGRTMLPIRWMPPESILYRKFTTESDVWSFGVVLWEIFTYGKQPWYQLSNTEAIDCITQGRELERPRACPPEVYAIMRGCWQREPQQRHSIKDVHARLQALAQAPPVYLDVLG
histidine-tagged recombinant human TrkA, cytoplasmic domain, sequence (P04629 440-796): as above

`CC1(C)CCc2ncc(F)cc2[C@H]2CCCN2c2ccn3ncc(c3n2)C(=O)N1` [Example 37]: in data set [1], the IC50 (commonly the point on the concentration scale where inhibition reaches its midpoint) fell in the range of 1 to 100 nM. Moreover, the ring closure, yield of all isomers (from COC(=O)c1cnn2ccc(N3CCC[C@@H]3c3cc(F)cnc3CCC(C)(C)NC(=O)OC(C)(C)C)nc12, amide bond, EDCI/HOBt/Et3N, DMF, 39.4 mM, 45.0 °C, 18.0 h, 3 steps) was found to be 48.3%.
With `O=C1NCCCOc2cccc(n2)[C@H]2CCCN2c2ccn3ncc1c3n2` [Example 2, (6R)-12-oxa-2,16,20,21,24,26-hexaazapentacyclo[16.5.2.1^7,11.0^2,6.0^21,25]hexacosa-1(24),7(26),8,10,18(25),19,22-heptaen-17-one], the IC50 in data set [2] and in data set [1] was 1 to 100 nM in each case.
Turning to `O=C1NCC(O)COc2ncc(F)cc2[C@H]2CCCN2c2ccn3ncc1c3n2` (stereo partly drawn) [Example 6, (6R)-9-fluoro-15-hydroxy-13-oxa-2,11,17,21,22,25-hexaazapentacyclo-[17.5.2.0^2,6.0^7,12.0^22,26]hexacosa-1(25),7,9,11,19(26),20,23-heptaen-18-one], the IC50 in data set [2] (setting [3]) and in data set [1] (setting [4]) was 1 to 100 nM throughout.
Regarding `O=C1NOCCOc2ncc(F)cc2[C@H]2CCCN2c2ccn3ncc1c3n2` [Example 16, (6R)-9-fluoro-13,16-dioxa-2,11,17,21,22,25-hexaazapentacyclo [17.5.2.0^2,6.0^7,12.0^22,26]hexacosa-1(25),7,9,11,19(26),20,23-heptaen-18-one], the half-inhibitory concentration (IC50) in data set [2] and in data set [1] was 1 to 100 nM throughout. The compound also gave a ring closure, yield of all isomers (from O=C(NOCCCl)c1cnn2ccc(N3CCC[C@@H]3c3cc(F)c[nH]c3=O)nc12, ether bond, Cs2CO3, DMF, 100.0 mM, 90.0 °C, […]) of 1%.
As to `O=C1NCCCCOc2ncc(F)cc2[C@H]2CCCN2c2ccn3ncc1c3n2` [Example 10, (6R)-9-fluoro-13-oxa-2,11,18,22,23,26-hexaazapentacyclo[18.5.2.0^2,6.0^7,12.0^23,27]heptacosa-1(26),7,9,11,20(27),21,24-heptaen-19-one], the IC50 in data set [2] and in data set [1] was 1 to 100 nM each time.
Regarding `O=C1NC[C@H](O)COc2ccc(F)cc2C2CC(F)(F)CN2c2ccn3ncc1c3n2` (stereo partly shown), the ring closure, yield of all isomers (from O=C(NC[C@H](O)CCl)c1cnn2ccc(N3CC(F)(F)CC3c3cc(F)ccc3O)nc12, ether bond, Cs2CO3, DMF, 20.0 mM, 85.0 °C, 0.5 h) was 44%.
For `O=C1NC[C@H](O)COc2ccc(F)cc2[C@H]2C[C@@H](O)CN2c2ccn3ncc1c3n2` [Example 41, (4R,6R,15S)-9-fluoro-4,15-dihydroxy-13-oxa-2,17,21,22,25-pentaazapentacyclo [17.5.2.0^2,6.0^7,12.0^22,26]hexacosa-1(25),7(12),8,10,19(26),20,23-heptaen-18-one], the IC50 in data set [1] was 1 to 100 nM. The ring closure, yield of all isomers (from O=C(NC[C@H](O)CCl)c1cnn2ccc(N3C[C@H](O)CC3c3cc(F)ccc3O)nc12, ether bond, Cs2CO3, DMF, 21.6 mM, 85.0 °C, 0.5 h) stood at 16.2%.
Consider `O=C1NCCCOc2ccc(F)cc2[C@H]2CCCN2c2ccn3ncc1c3n2` [Example 20, (6R)-9-fluoro-13-oxa-2,17,21,22,25-pentaazapentacyclo[17.5.2.0^2,6.0^7,12.0^22,26]hexacosa-1(25),7,9,11,19(26),20,23-heptaen-18-one], for which the IC50 in data set [2] and in data set [1] was 1 to 100 nM in each case. The compound further yielded a ring closure, yield of all isomers (from CCOC(=O)c1cnn2ccc(N3CCC[C@@H]3c3cc(F)ccc3OCCCN)nc12, amide bond, DIEA, EtOH, 230.0 mM, 200.0 °C) of 50%.
With `O=C1NCCOc2ncc(F)cc2[C@H]2CCCN2c2ccn3ncc1c3n2` [Example 9, (6R)-9-fluoro-13-oxa-2,11,16,20,21,24-hexaazapentacyclo[16.5.2.0^2,6.0^7,12.0^21,25]pentacosa-1(24),7,9,11,18(25),19,22-heptaen-17-one], the half-inhibitory concentration (IC50) in data set [2] (setting [3]) and in data set [1] (setting [4]) was 1 to 100 nM throughout. In addition, the ring closure, yield of all isomers (from O=C(NCCCl)c1cnn2ccc(N3CCC[C@@H]3c3cc(F)c[nH]c3=O)nc12, ether bond, Cs2CO3, DMF, […], 85.0 °C, 0.5 h) was 24%.
As to `O=C1NCC(F)(F)COc2ncc(F)cc2[C@H]2CCCN2c2ccn3ncc1c3n2` [Example 19, (6R)-9,15,15-trifluoro-13-oxa-2,11,17,21,22,25-hexaazapentacyclo[17.5.2.0^2,6.0^7,12.0^22,26]hexacosa-1(25),7,9,11,19(26),20,23-heptaen-18-one], the IC50 in data set [2] and in data set [1] was 1 to 100 nM in each case.
Regarding `O=C1NCCCCn2cc(F)cc(c2=O)[C@H]2CCCN2c2ccn3ncc1c3n2` [Example 11, (6R)-9-fluoro-2,11,16,20,21,24-hexaazapentacyclo[16.5.2.1^7,11.0^2,6.0^21,25]hexacosa-1(24),7,9,18(25),19,22-hexaene-17,26-dione], the IC50 in data set [2] and in data set [1] was 1 to 100 nM throughout.
Turning to `O=C1NC[C@@H](O)Cn2cc(F)cc(c2=O)[C@H]2CCCN2c2ccn3ncc1c3n2` [Example 8], the IC50 in data set [2] and in data set [1] was 1 to 100 nM each time.
`O=C1Nc2ncccc2COc2ncc(F)cc2[C@H]2CCCN2c2ccn3ncc1c3n2` [Example 39, (6R)-9-fluoro-13-oxa-2,11,19,21,25,26,29-heptaazahexacyclo [21.5.2.0^2,6.0^7,12.0^15,20.0^26,30]triaconta-1(29),7,9,11,15(20),16,18,23(30),24,27-decaen-22-one]: in data set [1], the IC50 lay in the range of 1 to 100 nM. Where the note is “from O=C(Nc1ncccc1CCl)c1cnn2ccc(N3CCC[C@@H]3c3cc(F)cnc3O)nc12, ether bond, Cs2CO3, DMF, 84.8 mM, 60.0 °C, 4.0 h, 4 steps”, this compound displayed a ring closure, yield of all isomers of 2.2%.
`O=C1NCCOc2ncc(F)cc2[C@H]2COC(=O)N2c2ccn3ncc1c3n2` [Example 31, (6S)-9-fluoro-4,13-dioxa-2,11,16,20,21,24-hexaazapentacyclo [16.5.2.0^2,6.0^7,12.0^21,25]pentacosa-1(24),7(12),8,10,18(25),19,22-heptaene-3,17-dione]: the concentration for half-maximal inhibition (IC50) in data set [2] and in data set [1] was 100 to 3000 nM each time.
As for `O=C1OCCOc2ncc(F)cc2[C@H]2CCCN2c2ccn3ncc1c3n2` [Example 14, (6R)-9-fluoro-13,16-dioxa-2,11,20,21,24-pentaazapentacyclo[16.5.2.0^2,6.0^7,12.0^21,25]pentacosa-1(24),7,9,11,18(25),19,22-heptaen-17-one], in data set [2], the concentration for half-maximal inhibition (IC50) was 1 to 100 nM. For the same compound, the ring closure, yield of all isomers (from O=C(OCCCl)c1cnn2ccc(N3CCC[C@@H]3c3cc(F)c[nH]c3=O)nc12, ether bond, Cs2CO3, DMF, 22.2 mM, 90.0 °C, 16.0 h) was 31%.
Consider `O=C1NCCCOc2ncc(F)cc2[C@H]2COC(=O)N2c2ccn3ncc1c3n2` [Example 30, (6S)-9-fluoro-4,13-dioxa-2,11,17,21,22,25-hexaazapentacyclo [17.5.2.0^2,6.0^7,12.0^22,26]hexacosa-1(25),7(12),8,10,19(26),20,23-heptaene-3,18-dione], for which, in data set [2], the IC50 fell in the range of 1 to 100 nM. Moreover, the ring closure, yield of all isomers (from O=C(NCCCCl)c1cnn2ccc(N3C(=O)OC[C@@H]3c3cc(F)c[nH]c3=O)nc12, ether bond, Cs2CO3, DMF, 26.7 mM, 65.0 °C, 48.5 h) worked out at 41%.
As for `CN1CCCOc2ncc(F)cc2[C@H]2CCCN2c2ccn3ncc(c3n2)C1=O` [Example 18, (6R)-9-fluoro-17-methyl-13-oxa-2,11,17,21,22,25-hexaazapentacyclo[17.5.2.0^2,6.0^7,12.0^22,26]hexacosa-1(25),7,9,11,19(26),20,23-heptaen-18-one], the concentration for half-maximal inhibition (IC50) in data set [2] and in data set [1] was 1 to 100 nM in each case. The compound further returned a ring closure, yield of all isomers (from CN(CCCCl)C(=O)c1cnn2ccc(N3CCC[C@@H]3c3cc(F)c[nH]c3=O)nc12, ether bond, Cs2CO3, DMF, 10.0 mM, 90.0 °C, 0.25 h) of 36%.
Consider `O=C(CO)N1CCOc2ccc(F)cc2[C@H]2CCCN2c2ccn3ncc(c3n2)C1` [Example 23, 1-[(6R)-9-fluoro-13-oxa-2,16,20,21,24-pentaazapentacyclo[16.5.2.0^2,6.0^7,12.0^21,25]pentacosa-1(24),7,9,11,18(25),19,22-heptaen-16-yl]-2-hydroxyethan-1-one], for which the IC50 in data set [2] and in data set [1] was 1 to 100 nM each time.
Regarding `O=C(O)CN1CCOc2ccc(F)cc2[C@H]2CCCN2c2ccn3ncc(c3n2)C1` [Example 26, 2-[(6R)-9-fluoro-13-oxa-2,16,20,21,24-pentaazapentacyclo[16.5.2.0^2,6.0^7,12.0^21,25]pentacosa-1(24),7,9,11,18(25),19,22-heptaen-16-yl]acetic acid], the IC50 in data set [2] and in data set [1] was 100 to 3000 nM each time.
For `O=C1NCCCc2ncc(F)cc2[C@H]2CCCN2c2ccn3ncc1c3n2` [Example 32, (6R)-9-fluoro-2,11,16,20,21,24-hexaazapentacyclo[16.5.2.0^2,6.0^7,12.0^21,25]pentacosa-1(24),7,9,11,18(25),19,22-heptaen-17-one], the IC50 in data set [1] was in the range of 1 to 100 nM. Where the note is “from NCCCc1ncc(F)cc1[C@H]1CCCN1c1ccn2ncc(C(=O)O)c2n1, amide bond, HATU, DMF, 8.4 mM, 3.0 h”, the ring closure, yield of all isomers was 39%.
